Earlier results as cited in patent US9259405B2, “Method of treating functional somatic syndromes with combination of famciclovir and diclofenac” (INNOVATIVE MED CONCEPTS, LLC, priority 2012, dated 2016).

Tested on: fibromyalgia patients
Details: J. Rheumatology (2004) 31, 783-784

Compound: CC(C)[C@H](N)C(=O)OCCOCn1cnc2c(=O)[nH]c(N)nc21 [valacyclovir]
- treatment of fibromyalgia patients: not successful
